According to patent US9662371B2, “Treatment of autism and similar disorders” (Neuropharmacology Services, LLC, priority 2002, dated 2017):

Tests used:
[1] = test system: adult patients diagnosed with autism or Asperger's disorder; experiment: Side effects and vital signs (blood pressure, pulse, oral temperature) during the oxytocin infusion challenge; type: in vivo, human
Description: (§1) All subjects were admitted into the General Clinical Research Center on the evening prior to each challenge. Following an overnight fast, the subject was awakened at 8:00 AM and an indwelling intravenous catheter inserted. At 8:30 AM vital signs were taken, and these continued to be monitored every half-hour. At 9:00 AM, 6 cc of blood were drawn and the oxytocin/placebo infusion was administered in a randomized double-blind fashion. The initial vial of Pitocin® (10 u/mL) combined aseptically with a 1.0 L bag of normal saline was first given at a rate of 10 mL/hr which is equivalent to a dose rate of 0.1 units/hour. The infusion was initiated at a low rate to minimize potential side effects, and the rate gradually titrated up. Specifically, the dose rate was titrated every 15 minutes by 25 mL/hour in the first hour, 50 mL/hour in the second hour, 100 mL/hour in the third hour, and held constant at the maximum rate of 700 mL/hr during the fourth hour. This created a range of dosing from 0.1 U/hour to 7 U/hour. See below:
(§2) Staff members were given specific instructions to discontinue increasing the rate of infusion if the patient experienced significant side effects. In order to assess possible cardiovascular effects, blood pressure and pulse were recorded every half hour. Oral temperature was recorded every hour. All fifteen subjects returned in 2-3 weeks for an identical challenge administered with the other infusion substance.
A repeated measure analysis of variance (ANOVA) was conducted looking at the two infusions (oxytocin vs. placebo) over time (0, 60, 120, 180 and 240 minutes). A logarithmic transformation was done for the repetitive behavior ratings because the data were not normally distributed. Baseline differences on the oxytocin vs. placebo days were examined using paired sample t-tests. Differences in response between patients with autism and patients with Asperger's disorder were examined using independent sample t-tests. […]

[2] = test system: adult patients diagnosed with autism or Asperger's disorder; experiment: Oxytocin vs placebo 4-hour intravenous infusion challenge, rating of six repetitive behaviors; type: in vivo, human
From the text: To evaluate the role of oxytocin in treating autism spectrum disorders, fifteen adult patients (mean age=32.9 years, range=19.4-55.6) (14 male, 1 female) diagnosed with autism (N=6) or Asperger's disorder (N=9) received oxytocin and placebo challenges during visits separated by 2-3 weeks to the General Clinical Research Center of the Department of Psychiatry, Seaver Autism Research Center at the Mount Sinai School of Medicine (New York, N.Y.).
Patients and their guardians signed written informed consent agreements, and the study was carried out in accordance with the Declaration of Helsinki as adopted and promulgated by the National Institutes of Health. All patents were medically healthy, without a current or past history of schizophrenia, psychotic disorders, substance abuse, other Axis I mental disorders, or seizure disorders. Patients were of average intelligence, with a mean IQ (±SD) of 90.33 (±9.90) (range=74-110). Nine patients were medication free for greater than one year prior to the study; three patents were medication free for greater than six weeks prior to the study (one was previously on fluoxetine, one on sertraline and one on bupropion); and the remaining three patents were medication free for a minimum of two weeks prior to and throughout the study (one was previously on fluvoxamine and risperidone, one on sertraline and one on clonazepam).
Each individual subject underwent two identical challenge days in which they received a continuous infusion over 4 hours of synthetic oxytocin (Pitocin®) or placebo.
as §1
The combined solution, rotated in an infusion bottle to insure thorough mixing, was added to the system by a constant infusion pump to accurately control the rate of infusion.
as §2
Severity of repetitive autistic behaviors was evaluated using a method developed during past research with the autistic population. Six behaviors were assessed: need to know, repeating, ordering, need to tell/ask, self-injury, and touching. The ratings were completed at baseline (O), 60, 120, 180, and 240 minutes and reported. The frequency of each of the six repetitive behaviors was recorded using a four point ordinal scale with the following values: 0=never, 1=rarely, 2=sometimes, 3=constantly. These ratings were done following a 15 to 20 minute interview during which several other measures were administered and the rater had the opportunity to observe the patient's behavior in this domain. […]

[3] = baseline (0) to endpoint (240 minutes), 15 patients, FIG. 2

With `CC[C@H](C)[C@@H]1NC(=O)[C@H](Cc2ccc(O)cc2)NC(=O)[C@@H](N)CSSC[C@@H](C(=O)N2CCC[C@H]2C(=O)N[C@@H](CC(C)C)C(=O)NCC(N)=O)NC(=O)[C@H](CC(N)=O)NC(=O)[C@H](CCC(N)=O)NC1=O` [oxytocin] the “effects of infusion on blood pressure, pulse, or temperature” value ([1]; 4-hour infusion, 0.1 U/hour to 7 U/hour) was “no significant effects”, the side effects ([1]; 4-hour infusion, drowsiness, anxiety, depression, headache, tingling, backache, trembling, restlessness, stomach cramps, enuresis) was “mild” and the “relationship between presence or number of side effects and behavioral response” value ([1]; chi square analysis) was “no relationship”. For the same molecule, the “individual dimensions of repetitive behavior, oxytocin versus placebo infusions over time” value ([2]; ANOVA of individual items, at p<0.05) was “no significant differences”, the “main effect for drug on repetitive behaviors” value ([2]; ANOVA, F=1.835, df=1, 13, p=0.199) was “no significant main effect” and the “total number of repetitive behaviors observed following administration” value ([2]; autistic study group, FIG. 1 (dashed line)) was “appears to decrease”. The “patients with an increase in repetitive behaviors” value [2, 3] was 1 patient, the “patients with no change in repetitive behaviors” value [2, 3] was 1 patient and the “response of patients with autism versus patients with Asperger's disorder following oxytocin infusion” value ([2]; independent sample t-test, t=0.687, df=13, p=0.504) was “did not differ”. For the same molecule, the “number of different types of repetitive behavior at endpoint” value ([2]; individuals who responded to oxytocin, endpoint (240 minutes)) was “none or one”, the “reduction in repetitive behaviors over time following oxytocin compared to placebo” value ([2]; repeated measures ANOVA, 0-240 min, drug×time interaction F=3.487, df=4, 52, p=0.027, FIG. 1) was “significantly greater reduction” and the “touching behavior, oxytocin versus placebo over time” value ([2]; time×drug interaction F=2.444, df=4, 52, p=0.093 (p<0.10)) was “directional difference”. For the same molecule, the “repeating behavior, oxytocin versus placebo over time” value ([2]; time×drug interaction F=2.70, df=4, 52, p=0.086 (p<0.10)) was “directional difference”.
